Experimental data: US12521440B2, “Degradation of bruton's tyrosine kinase (BTK) by conjugation of BTK inhibitors with E3 ligase ligand and methods of use” (BeOne Medicines I GmbH, priority 2021, dated 2026)

Key:
HEK-293 cells = test: HEK-293 cytotoxicity detection (CellTiter-Glo); type: cell-based; conditions: Homo sapiens, 72 h incubation, read-out: HEK293
How it was run: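 Cytotoxicity IC50 derived by four-parameter curve fitting of percent inhibition of CellTiter-Glo luminescence. Compounds tested at 8 doses in 4-fold steps, 0.2% DMSO, on HEK-293 cells for 72 h.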

BTK = biological target: T1, BTK (Homo sapiens, UniProt Q06187); test: BTK degradation in TMD-8 cells (HTRF assay); type: cell-based; conditions: 6 h treatment, HTRF BTK degradation IC50 (DC50)
T1 construct: endogenous in cells; host or cells: TMD-8 cells
T1 sequence (Q06187 whole entry): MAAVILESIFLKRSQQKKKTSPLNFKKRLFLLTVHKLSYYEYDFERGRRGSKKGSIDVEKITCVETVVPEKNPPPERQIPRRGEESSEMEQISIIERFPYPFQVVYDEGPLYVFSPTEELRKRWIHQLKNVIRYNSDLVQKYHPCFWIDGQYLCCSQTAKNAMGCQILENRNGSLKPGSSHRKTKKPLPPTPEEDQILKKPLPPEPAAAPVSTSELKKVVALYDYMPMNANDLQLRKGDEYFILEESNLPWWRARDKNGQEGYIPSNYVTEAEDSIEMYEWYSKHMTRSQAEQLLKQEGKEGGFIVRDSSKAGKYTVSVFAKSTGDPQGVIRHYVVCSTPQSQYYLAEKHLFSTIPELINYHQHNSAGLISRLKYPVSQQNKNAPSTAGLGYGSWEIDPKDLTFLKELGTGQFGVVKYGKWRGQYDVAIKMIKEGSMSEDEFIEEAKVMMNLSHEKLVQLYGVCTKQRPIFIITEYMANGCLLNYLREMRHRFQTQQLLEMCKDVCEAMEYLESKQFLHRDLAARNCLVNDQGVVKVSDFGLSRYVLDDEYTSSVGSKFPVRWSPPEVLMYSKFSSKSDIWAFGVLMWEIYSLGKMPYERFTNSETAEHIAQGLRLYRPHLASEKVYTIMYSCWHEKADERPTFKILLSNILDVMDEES
How it was run: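 BTK levels measured by HTRF (665/620 nm) in lysates of TMD-8 cells after 6 h compound treatment, with antibody incubation overnight at room temperature. Dosing covered 8 points, 6-fold dilutions from 1 mM 500× stocks, 0.2% DMSO final. Four-parameter curve fitting gave DC50.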

DC50 (BTK) [nM]	Structure (SMILES)	IC50 (HEK-293 cells) [nM]
1.3	Cc1cc(-c2cc(Nc3ccc(N4CC5(CCN(CC6CCN(c7ccc(N8CCC(=O)NC8=O)cc7)CC6)CC5)C4)cn3)ncn2)ccc1[C@@H](C)NC(=O)c1nc(C(C)(C)C)no1 [Example 33, (R)-3-(tert-butyl)-N-(1-(4-(6-((5-(7-((1-(4-(2,4-dioxotetrahydropyrimidin-1(2H)-yl)phenyl)piperidin-4-yl)methyl)-2,7-diazaspiro [3.5]nonan-2-yl)pyridin-2-yl)amino)pyrimidin-4-yl)-2-methylphenyl)ethyl)-1,2,4-oxadiazole-5-carboxamide]	> 10000
1.88	Cc1cc(-c2cc(Nc3ccc(N4CCC5(CCN(CC6CCN(c7ccc(N8CCC(=O)NC8=O)cc7)CC6)CC5)CC4)cn3)ncn2)ccc1[C@@H](C)NC(=O)c1nc(C(C)(C)C)no1 [Example 34, (R)-3-(tert-butyl)-N-(1-(4-(6-((5-(9-((1-(4-(2,4-dioxotetrahydropyrimidin-1(2H)-yl)phenyl)piperidin-4-yl)methyl)-3,9-diazaspiro [5.5]undecan-3-yl)pyridin-2-yl)amino)pyrimidin-4-yl)-2-methylphenyl)ethyl)-1,2,4-oxadiazole-5-carboxamide]	891
0.981	Cc1cc(-c2cc(Nc3ccc(N4CC5(CN(C(=O)C6CN(c7ccc(N8CCC(=O)NC8=O)cc7)C6)C5)C4)cn3)ncn2)ccc1[C@@H](C)NC(=O)c1nc(C(C)(C)C)no1 [Example 35, (R)-3-(tert-butyl)-N-(1-(4-(6-((5-(6-(1-(4-(2,4-dioxotetrahydropyrimidin-1(2H)-yl)phenyl)azetidine-3-carbonyl)-2,6-diazaspiro [3.3]heptan-2-yl)pyridin-2-yl)amino)pyrimidin-4-yl)-2-methylphenyl)ethyl)-1,2,4-oxadiazole-5-carboxamide]	> 10000
0.566	Cc1cc(-c2cc(Nc3ccc(N4CCC5(CC4)CN(C(=O)C4CN(c6ccc(N7CCC(=O)NC7=O)cc6)C4)C5)cn3)ncn2)ccc1[C@@H](C)NC(=O)c1nc(C(C)(C)C)no1 [Example 36, (R)-3-(tert-butyl)-N-(1-(4-(6-((5-(2-(1-(4-(2,4-dioxotetrahydropyrimidin-1(2H)-yl)phenyl)azetidine-3-carbonyl)-2,7-diazaspiro [3.5]nonan-7-yl)pyridin-2-yl)amino)pyrimidin-4-yl)-2-methylphenyl)ethyl)-1,2,4-oxadiazole-5-carboxamide]	> 10000
0.835	Cc1cc(-c2cc(Nc3ccc(N4CC5(CN(C(=O)C6CCN(c7ccc(N8CCC(=O)NC8=O)cc7)C6)C5)C4)cn3)ncn2)ccc1[C@@H](C)NC(=O)c1nc(C(C)(C)C)no1 (stereo partly drawn) [Example 37, 3-(tert-butyl)-N-((1R)-1-(4-(6-((5-(6-(1-(4-(2,4-dioxotetrahydropyrimidin-1(2H)-yl)phenyl)pyrrolidine-3-carbonyl)-2,6-diazaspiro [3.3]heptan-2-yl)pyridin-2-yl)amino)pyrimidin-4-yl)-2-methylphenyl)ethyl)-1,2,4-oxadiazole-5-carboxamide]	> 10000
0.954	Cc1cc(-c2cc(Nc3ccc(N4CCC5(CC4)CN(C(=O)C4CCN(c6ccc(N7CCC(=O)NC7=O)cc6)C4)C5)cn3)ncn2)ccc1[C@@H](C)NC(=O)c1nc(C(C)(C)C)no1 (stereo partly drawn) [Example 38, 3-(tert-butyl)-N-((1R)-1-(4-(6-((5-(2-(1-(4-(2,4-dioxotetrahydropyrimidin-1(2H)-yl)phenyl)pyrrolidine-3-carbonyl)-2,7-diazaspiro[3.5]nonan-7-yl)pyridin-2-yl)amino)pyrimidin-4-yl)-2-methylphenyl)ethyl)-1,2,4-oxadiazole-5-carboxamide]	> 10000
0.209	Cc1cc(-c2cc(Nc3ccc(N4CCN(C5CN(C6CN(c7ccc(N8CCC(=O)NC8=O)cc7)C6)C5)CC4)cn3)ncn2)ccc1[C@@H](C)NC(=O)c1nc(C(C)(C)C)no1 [Example 39, (R)-3-(tert-butyl)-N-(1-(4-(6-((5-(4-(1′-(4-(2,4-dioxotetrahydropyrimidin-1(2H)-yl)phenyl)-[1,3′-biazetidin]-3-yl)piperazin-1-yl)pyridin-2-yl)amino)pyrimidin-4-yl)-2-methylphenyl)ethyl)-1,2,4-oxadiazole-5-carboxamide]	> 10000
0.382	Cc1cc(-c2cc(Nc3ccc(N4CCN(C5CN(c6ccc(N7CCC(=O)NC7=O)cc6)C5)CC4)cn3)ncn2)ccc1[C@@H](C)NC(=O)c1nc(C(C)(C)C)no1 [Example 40, (R)-3-(tert-butyl)-N-(1-(4-(6-((5-(4-(1-(4-(2,4-dioxotetrahydropyrimidin-1(2H)-yl)phenyl)azetidin-3-yl)piperazin-1-yl)pyridin-2-yl)amino)pyrimidin-4-yl)-2-methylphenyl)ethyl)-1,2,4-oxadiazole-5-carboxamide]	> 10000
2.47	Cc1cc(-c2cc(Nc3ccc(N4CCN(C5CN(c6ccc(C7CCC(=O)NC7=O)cc6)C5)CC4)cn3)ncn2)ccc1[C@@H](C)NC(=O)c1nc(C(C)(C)C)no1 (stereo partly drawn) [Example 41, 3-(tert-butyl)-N-((1R)-1-(4-(6-((5-(4-(1-(4-(2,6-dioxopiperidin-3-yl)phenyl)azetidin-3-yl)piperazin-1-yl)pyridin-2-yl)amino)pyrimidin-4-yl)-2-methylphenyl)ethyl)-1,2,4-oxadiazole-5-carboxamide]	> 10000
1.2	Cc1cc(-c2cc(Nc3ccc(N4CCN(C5CN(C6CN(c7ccc(C8CCC(=O)NC8=O)cc7)C6)C5)CC4)cn3)ncn2)ccc1[C@@H](C)NC(=O)c1nc(C(C)(C)C)no1 (stereo partly drawn) [Example 42, 3-(tert-butyl)-N-((1R)-1-(4-(6-((5-(4-(1′-(4-(2,6-dioxopiperidin-3-yl)phenyl)-[1,3′-biazetidin]-3-yl)piperazin-1-yl)pyridin-2-yl)amino)pyrimidin-4-yl)-2-methylphenyl)ethyl)-1,2,4-oxadiazole-5-carboxamide]	> 10000
2.99	Cc1cc(-c2cc(Nc3ccc(N4CCN(C5CC6(CCN(c7ccc(N8CCC(=O)NC8=O)cc7)CC6)C5)CC4)cn3)ncn2)ccc1[C@@H](C)NC(=O)c1nc(C(C)(C)C)no1 [Example 43, (R)-3-(tert-butyl)-N-(1-(4-(6-((5-(4-(7-(4-(2,4-dioxotetrahydropyrimidin-1(2H)-yl)phenyl)-7-azaspiro[3.5]nonan-2-yl)piperazin-1-yl)pyridin-2-yl)amino)pyrimidin-4-yl)-2-methylphenyl)ethyl)-14-oxadiazole-5-carboxamide]	> 10000
1.63	Cc1cc(-c2cc(Nc3ccc(N4CCN(C5CN(C6CN(c7ccc8c(c7)C(=O)N(C7CCC(=O)NC7=O)C8=O)C6)C5)CC4)cn3)ncn2)ccc1[C@@H](C)NC(=O)c1nc(C(C)(C)C)no1 (stereo partly drawn) [Example 44, 3-(tert-butyl)-N-((1R)-1-(4-(6-((5-(4-(1′-(2-(2,6-dioxopiperidin-3-yl)-1,3-dioxoisoindolin-5-yl)-[1,3′-biazetidin]-3-yl)piperazin-1-yl)pyridin-2-yl)amino)pyrimidin-4-yl)-2-methylphenyl)ethyl)-1,2,4-oxadiazole-5-carboxamide]	> 10000
1.75	Cc1cc(-c2cc(Nc3ccc(N4CCN(CCc5cc(F)c(C6CCC(=O)NC6=O)c(F)c5)CC4)cn3)ncn2)ccc1[C@@H](C)NC(=O)c1nc(C(C)(C)C)no1 (stereo partly drawn) [Example 45, 3-(tert-butyl)-N-((1R)-1-(4-(6-((5-(4-(4-(2,6-dioxopiperidin-3-yl)-3,5-difluorophenethyl)piperazin-1-yl)pyridin-2-yl)amino)pyrimidin-4-yl)-2-methylphenyl)ethyl)-1,2,4-oxadiazole-5-carboxamide]	> 10000
0.96	Cc1cc(-c2cc(Nc3ccc(N4CCN(CCc5ccc(C6CCC(=O)NC6=O)c(F)c5)CC4)cn3)ncn2)ccc1[C@@H](C)NC(=O)c1nc(C(C)(C)C)no1 (stereo partly drawn) [Example 47, 3-(tert-butyl)-N-((1R)-1-(4-(6-((5-(4-(4-(2,6-dioxopiperidin-3-yl)-3-fluorophenethyl)piperazin-1-yl)pyridin-2-yl)amino)pyrimidin-4-yl)-2-methylphenyl)ethyl)-1,2,4-oxadiazole-5-carboxamide]	> 10000
1.44	Cc1cc(CCN2CCN(c3ccc(Nc4cc(-c5ccc([C@@H](C)NC(=O)c6nc(C(C)(C)C)no6)c(C)c5)ncn4)nc3)CC2)ccc1C1CCC(=O)NC1=O (stereo partly drawn) [Example 48, 3-(tert-butyl)-N-((1R)-1-(4-(6-((5-(4-(4-(2,6-dioxopiperidin-3-yl)-3-methylphenethyl)piperazin-1-yl)pyridin-2-yl)amino)pyrimidin-4-yl)-2-methylphenyl)ethyl)-1,2,4-oxadiazole-5-carboxamide]	> 10000
0.486	Cc1cc(-c2cc(Nc3ccc(N4CCN(CCc5ccc6c(c5)oc(=O)n6C5CCC(=O)NC5=O)CC4)cn3)ncn2)ccc1[C@@H](C)NC(=O)c1nc(C(C)(C)C)no1 (stereo partly drawn) [Example 49, 3-(tert-butyl)-N-((1R)-1-(4-(6-((5-(4-(2-(3-(2,6-dioxopiperidin-3-yl)-2-oxo-2,3-dihydrobenzo[d]oxazol-6-yl)ethyl)piperazin-1-yl)pyridin-2-yl)amino)pyrimidin-4-yl)-2-methylphenyl)ethyl)-1,2,4-oxadiazole-5-carboxamide]	> 10000
0.632	Cc1cc(-c2cc(Nc3ccc(N4CCN(CCc5cccc6c5n(C)c(=O)n6C5CCC(=O)NC5=O)CC4)cn3)ncn2)ccc1[C@@H](C)NC(=O)c1nc(C(C)(C)C)no1 (stereo partly drawn) [Example 50, 3-(tert-butyl)-N-((1R)-1-(4-(6-((5-(4-(2-(1-(2,6-dioxopiperidin-3-yl)-3-methyl-2-oxo-2,3-dihydro-1H-benzo[d]imidazol-4-yl)ethyl)piperazin-1-yl)pyridin-2-yl)amino)pyrimidin-4-yl)-2-methylphenyl)ethyl)-1,2,4-oxadiazole-5-carboxamide]	920
